Article PMC4541002, “Quantification of Niacin and Its Metabolite Nicotinuric Acid in Human Plasma by LC-MS/MS: Application to a Clinical Trial of a Fixed Dose Combination Tablet of Niacin Extended-Release/Simvastatin (500 mg/10 mg) in Healthy Chinese Volunteers” (International Journal of Analytical Chemistry, 2015)
Like-named read-outs stand apart in the source and are kept apart here.

Key:
[1] = for Found C / Found R.E.: n = 3
Experimental: The following stability tests were evaluated: (1) stability of the stock solutions of the analytes; (2) freeze and thaw stability of the analytes in the plasma from −20°C to room temperature for three cycles; (3) short-term stability of the analytes in plasma at room temperature before extraction for 3 h and the ready-to-inject samples (after extraction, in the mobile phase) to the autosampler rack for 4 h; and (4) long-term stability of the analytes in matrix stored at −20°C for two months. All stability tests samples at three concentration levels (10, 60, and 600 ng/mL) were analyzed in triplicate and the deviations were determined in relation to freshly prepared samples.

[2] = Pharmacokinetics of NA and NUA in plasma after single oral doses of Niacin extended-release/Simvastatin tablets in healthy Chinese volunteers; assay type: in vivo; conditions: for CLz/F: human plasma; for AUC(0-t) / AUC(0-inf) / Tmax / half-life / Cmax / k el / MRT last / Vd/F: both sexes, human, in vivo, po; for k el: n = 12, read-out: K e (converted); for MRT last: n = 12, read-out: MRT0–t; for Vd/F: n = 12, read-out: V z/F
Experimental: Extraction of NA and NUA was carried out by protein precipitation. First, 50 μL of the IS working solution (1000 ng/mL 5-FU) and 50 μL of water were added to a 100 μL aliquot of human plasma. The sample mixture was then deproteinized with 250 μL of acetonitrile, and the precipitate was removed by centrifugation at 15000 rpm for 10 min. The supernatant was transferred to another tube and evaporated under a gentle stream of nitrogen at 40°C until it is dry. The residue was reconstituted in 150 μL mobile phase and vortex-mixed for 30 sec. An aliquot of 40 μL of the solution was injected into the LC-MS/MS system for analysis.
Before conducting the study all subjects provided written informed consent to participate. The study was designed as randomized, open-label, crossover, and single dose periods with a 7-day washout between each treatment. A total of 12 healthy Chinese volunteers (6 males and 6 females) aged 20 to 35 years with a body mass index between 19 and 24 kg/m^2 were recruited. Subjects were randomized into three groups (2 males and 2 females for each treatment). They were orally dosed with Niacin extended-release/Simvastatin 1, 2, and 3 tablets once daily, separately. The venous blood samples were collected at time intervals (0, 0.33, 0.66, 1.0, 1.5, 2.0, 2.5, 3.0, 3.5, 4.0, 5.0, 6.0, 8.0, 12, and 24 h) in separate vacutainers during the treatment. All blood samples were centrifuged at 3000 ×g for 10 min and the plasma was separated and kept frozen at −20°C until analysis.
The pharmacokinetic parameters were calculated with data analysis system (DAS) program (version 2.0, Mathematical Pharmacology Professional Committee, Shanghai, China). The maximum plasma concentration (C max) and the corresponding time (T max) were obtained from observed data. The terminal elimination rate constant (K e) was estimated with least-squares regression of values in the terminal log-linear region of plasma concentration-time curves, and the terminal elimination half-life (t 1/2) was calculated to be 0.693/K e. The area under the curve from time zero to the last sampling time (AUC0−t) was determined using the linear trapezoidal rule.

[3] = Stability of stock solutions of NA and NUA; assay type: physicochemical
Experimental: Two separate stock solutions of the analytes were prepared at 1 mg/mL in methanol-water (50 : 50, v/v) and stored at −20°C. A series of standard working solutions for NA and NUA were prepared by diluting stock solution with methanol-water (50 : 50, v/v). The 5-FU solution was brought to a final concentration of 1000 ng/mL in acetonitrile from 1 mg/mL in acetonitrile. All working solutions were stored at 4°C and brought to room temperature before use. Calibration standards and quality control samples were prepared by spiking 50 μL of the working solutions and 50 μL of IS into 100 μL of drug-free human plasma. Matrix-matched NA and NUA calibration standards were prepared in plasma at concentrations of 5, 10, 20, 60, 200, 600, and 800 ng/mL, respectively. Similarly, NA and NUA quality control (QC) samples were prepared separately in plasma to give concentrations of 10, 60, and 600 ng/mL.

[4] = extracted plasma sample in mobile phase, autosampler for 4 h (24°C), added 10.0 ng/mL
[5] = extracted plasma sample in mobile phase, autosampler for 4 h (24°C), added 60.0 ng/mL
[6] = extracted plasma sample in mobile phase, autosampler for 4 h (24°C), added 600.0 ng/mL
[7] = human plasma, long-term (2 months at −20°C), added 10.0 ng/mL
[8] = human plasma, long-term (2 months at −20°C), added 60.0 ng/mL
[9] = human plasma, long-term (2 months at −20°C), added 600.0 ng/mL
[10] = human plasma, short-term (3 h at 24°C), added 10.0 ng/mL
[11] = human plasma, short-term (3 h at 24°C), added 60.0 ng/mL
[12] = human plasma, short-term (3 h at 24°C), added 600.0 ng/mL
[13] = human plasma, three freeze/thaw cycles, added 10.0 ng/mL
[14] = human plasma, three freeze/thaw cycles, added 60.0 ng/mL
[15] = human plasma, three freeze/thaw cycles, added 600.0 ng/mL
[16] = 1 tablet (500 mg/10 mg), mean ± S.D., n = 12
[17] = 2 tablets (1000 mg/20 mg), mean ± S.D., n = 12
[18] = 3 tablets (1500 mg/30 mg), mean ± S.D., n = 12
[19] = 1 tablet (500 mg/10 mg), mean ± S.D.
[20] = 2 tablets (1000 mg/20 mg), mean ± S.D.
[21] = 3 tablets (1500 mg/30 mg), mean ± S.D.

For `O=C(O)CNC(=O)c1cccnc1` [NUA, nicotinuric acid], the “Found C” value [1, 4] was 10.7 ng/mL, the “Found R.E.” value [1, 4] was 7.3% and the “Found C” value [1, 5] was 67.0 ng/mL. For the same compound, the “Found R.E.” value [1, 5] was 11.7%, the “Found C” value [1, 6] was 598.3 ng/mL and the “Found R.E.” value [1, 6] was −0.3%. For the same compound, the “Found C” value [1, 7] was 10.6 ng/mL, the “Found R.E.” value [1, 7] was 6.4% and the “Found C” value [1, 8] was 59.1 ng/mL. The “Found R.E.” value [1, 8] was −1.5%, the “Found C” value [1, 9] was 579.3 ng/mL and the “Found R.E.” value [1, 9] was −3.4%. The “Found C” value [1, 10] was 11.0 ng/mL, the “Found R.E.” value [1, 10] was 9.7% and the “Found C” value [1, 11] was 63.6 ng/mL. For the same compound, the “Found R.E.” value [1, 11] was 5.9%, the “Found C” value [1, 12] was 628.7 ng/mL and the “Found R.E.” value [1, 12] was 4.8%. For the same compound, the “Found C” value [1, 13] was 10.8 ng/mL, the “Found R.E.” value [1, 13] was 8.3% and the “Found C” value [1, 14] was 63.3 ng/mL. The “Found R.E.” value [1, 14] was 5.6%, the “Found C” value [1, 15] was 618.3 ng/mL and the “Found R.E.” value [1, 15] was 3.1%. The “stability in human plasma” value ([1]; variety of storage and process conditions (Tables 2 and 3)) was “did not reveal any significant degradation”, the CLz/F [2, 16] was 287.8 ± 128.2 L/h and the CLz/F [2, 17] was 224.8 ± 91.90 L/h. It also gave a CLz/F [2, 18] of 189.3 ± 94.20 L/h, an AUC(0-t) ([2]; 1 tablet) of 2150 ± 1360 ng·h/mL and an AUC(0-inf) [2, 16] of 2180 ± 1370 ng·h/mL. The AUC(0-t) [2, 16] was 2150 ± 1360 ng·h/mL, the Tmax [2, 16] was 2.06 ± 1.6 h and the half-life [2, 16] was 1.7 ± 0.801 h. For the same compound, the Cmax ([2]; 1 tablet (500 mg/10 mg), mean ± S.D., n = 12, read-out: C max) was 836 ± 399 ng/mL, the k el [2, 19] was 0.000147 s⁻¹ and the MRT last [2, 19] was 2.91 ± 0.74 h. For the same compound, the Vd/F [2, 19] was 649 ± 338 L, the Cmax ([2]; 1 tablet, read-out: mean maximum plasma concentration (C max)) was 836 ± 399 ng/mL and the AUC(0-t) ([2]; 2 tablets) was 5400 ± 3220 ng·h/mL. It also gave an AUC(0-inf) [2, 17] of 5480 ± 3250 ng·h/mL, an AUC(0-t) [2, 17] of 5400 ± 3220 ng·h/mL and a Tmax [2, 17] of 3.03 ± 2.19 h. It also gave a half-life [2, 17] of 2.55 ± 1.26 h, a Cmax ([2]; 2 tablets (1000 mg/20 mg), mean ± S.D., n = 12, read-out: C max) of 1630 ± 636 ng/mL and a k el [2, 20] of 9.17e-05 s⁻¹. The MRT last [2, 20] was 3.6 ± 1.32 h, the Vd/F [2, 20] was 821 ± 523 L and the Cmax ([2]; 2 tablets, read-out: C max) was 1630 ± 636 ng/mL. For the same compound, the AUC(0-t) ([2]; 3 tablets) was 10200 ± 7080 ng·h/mL, the AUC(0-inf) [2, 18] was 10200 ± 7090 ng·h/mL and the AUC(0-t) [2, 18] was 10200 ± 7080 ng·h/mL. The Tmax [2, 18] was 2.33 ± 1.05 h, the half-life [2, 18] was 2.72 ± 1.83 h and the Cmax ([2]; 3 tablets (1500 mg/30 mg), mean ± S.D., n = 12, read-out: C max) was 2790 ± 1040 ng/mL. The k el [2, 21] was 9.17e-05 s⁻¹, the MRT last [2, 21] was 3.79 ± 1.11 h and the Vd/F [2, 21] was 696 ± 458 L. The Cmax ([2]; 3 tablets, read-out: C max) was 2790 ± 1040 ng/mL, the “R.E.% of response, stock solution stability” value ([3]; seven days at −20°C versus before) was −1.6% and the “R.E.% of response, stock solution stability” value ([3]; six h at room temperature versus before) was 0.8%.
